Data from ChEMBL document CHEMBL5042549, “Discovery of Inhibitors of the Lipopolysaccharide Transporter MsbA: From a Screening Hit to Potent Wild-Type Gram-Negative Activity” (J Med Chem, 2022).
≈ marks a conversion by molar mass, not a printed value.

What was measured:
[1] = Inhibition of Escherichia coli MsbA preincubated for 10 mins followed by ATP addition and incubated for 1 hr by fluorescence polarization assay
Escherichia coli [2] = assay: Antibacterial activity against wild type Escherichia coli CFT073 (ATCC 700928) assessed as bacterial growth by broth microdilution assay; assay type: functional
[3] = Lipophilicity, logD of compound by shake flask method; assay type: physicochemical; settings: octanol/water
Escherichia coli [4] = assay: Antibacterial activity against wild type Escherichia coli MG1655 msbA-cKO lptD (imp4213) expressing Escherichia coli MsbA assessed as bacterial growth inhibition by broth microdilution assay; assay type: functional
A549 = assay: Cytotoxicity against human A549 cells at 50 uM; assay type: toxicity, cell-based; settings: a549, 50 µM
Escherichia coli [5] = assay: Antibacterial activity against wild type Escherichia coli MG1655 msbA-cKO lptD (imp4213) expressing Acinetobacter baumannii MsbA assessed as bacterial growth inhibition by broth microdilution assay; assay type: functional
Escherichia coli [6] = assay: Selectivity ratio of MIC for Escherichia coli MG1655 msbA-cKO lptD (imp4213) […]; assay type: functional
Klebsiella pneumoniae = assay: Antibacterial activity against wild type Klebsiella pneumoniae MGH78578 (ATCC 700721) assessed as bacterial growth inhibition by broth microdilution assay; assay type: functional
Jurkat = assay: Cytotoxicity against human Jurkat cells at 50 uM; assay type: toxicity, cell-based
Enterobacter cloacae = assay: Antibacterial activity against wild type Enterobacter cloacae (ATCC 13047) assessed as bacterial growth inhibition by broth microdilution assay; assay type: functional
HEK293 = assay: Cytotoxicity against human HEK293 cells at 50 uM; assay type: toxicity, cell-based; settings: hek293, 50 µM
Escherichia coli [7] = assay: Antibacterial activity against wild type Escherichia coli MG1655 carrying lptD (imp4213) assessed as bacterial growth inhibition by broth microdilution assay; assay type: functional

| SMILES | IC50 [1] | MIC (Escherichia coli [2]) | logD [3] | MIC (Escherichia coli [7]) | other results |
| --- | --- | --- | --- | --- | --- |
| C[C@H](Oc1ccc2c(=O)nc(/C=C/C(=O)O)n(C3CC3)c2c1)c1c(Cl)ccc(F)c1Cl | 7200 nM | > 100 µM |  |  |  |
| C[C@H](Oc1ccc2ncc(/C=C/S(=O)(=O)O)c(C3CC3)c2c1)c1c(Cl)ccc(F)c1Cl | 14 nM | > 100 µM | 2.5 |  |  |
| CC(Oc1ccc2ncc(/C=C/C(=O)O)c(C3CC3)c2c1)c1c(Cl)cccc1C#N (stereo not given) | 24 nM | > 100 µM | 2.2 |  |  |
| C[C@H](Oc1ccc2ncc(/C=C/c3nn[nH]n3)c(C(F)F)c2c1)c1c(Cl)cccc1Cl | 8 nM | 25 µM | 3.3 |  | MIC (Escherichia coli [4]): 1.6 µM (≈ 0.74 µg/mL); Activity (A549): Non-Toxic; MIC (Escherichia coli [5]): 50 µM (≈ 23.1 µg/mL); Selectivity ratio (Escherichia coli [6]): 31; MIC (Klebsiella pneumoniae): 25 µM (≈ 11.6 µg/mL); Activity (Jurkat): Non-Toxic; MIC (Enterobacter cloacae): 50 µM (≈ 23.1 µg/mL); Activity (HEK293): Non-Toxic |
| C[C@H](Oc1ccc2c(c1)c(C1CC1)c(/C=C/C(=O)O)c[n+]2[O-])c1c(Cl)ccc(F)c1Cl | 13 nM | > 100 µM | 1.7 |  |  |
| C[C@H](Oc1ccc2ncc(/C=C/C(=O)N3CC[C@@H](N)[C@H](C(=O)O)C3)c(C3CC3)c2c1)c1c(Cl)ccc(F)c1Cl (mixture of isomers) | 5 nM | > 100 µM | 3.1 |  |  |
| C[C@H](Oc1cccc(C2CC2)c1)c1c(Cl)ccc(F)c1Cl | > 10000 nM | > 100 µM | 5 | > 100 µM |  |
| C[C@H](Oc1ccc2ncc(/C=C/C(N)=O)c(C3CC3)c2c1)c1c(Cl)ccc(F)c1Cl | 7 nM | > 100 µM | > 5.5 |  |  |
| Cc1cc(O[C@@H](C)c2c(Cl)ccc(F)c2Cl)ccc1/C=C/C(=O)O | 2200 nM | > 100 µM | 3.2 | > 100 µM |  |
| C[C@H](Oc1ccc(/C=C/C(=O)O)cc1)c1c(Cl)ccc(F)c1Cl | 5800 nM | > 100 µM | 2.8 | > 100 µM |  |
| C[C@H](Oc1ccc2ncc(/C=C/C(=O)O)c(C3CC3)c2c1)c1c(Cl)ccc(N)c1Cl | 14 nM | 63 µM | 2.8 |  |  |
| C[C@H](Oc1ccc2ncc(/C=C/C(=O)O)c(C3CC3)c2c1)c1c(Cl)cccc1Cl | 2 nM | 30 µM | 3.7 |  |  |
| C[C@H](Oc1ccc2ncc(/C=C/C(=O)O)c(C3CC3)c2c1)c1c(Cl)ccnc1Cl | 18 nM | > 100 µM | 2.3 |  |  |
| C[C@H](Oc1ccc(NC(=O)CC(=O)O)c(C2CC2)c1)c1c(Cl)ccc(F)c1Cl | 60 nM | > 100 µM | 1.9 | 71 µM (≈ 30.3 µg/mL) |  |
| C[C@H](Oc1ccc(NC(=O)CC(N)=O)c(C2CC2)n1)c1c(Cl)ccc(F)c1Cl | 27 nM | > 100 µM | 3.7 | 12 µM (≈ 5.12 µg/mL) |  |
| C[C@H](Oc1ccc2ncc(/C=C/C(=O)O)cc2c1)c1c(Cl)ccc(F)c1Cl | 140 nM | > 100 µM | 2.5 |  |  |
| C[C@H](Oc1ccc2ncc(/C=C/C(=O)NS(C)(=O)=O)c(C3CC3)c2c1)c1c(Cl)cccc1Cl | 2 nM | 35 µM | 2.9 |  |  |
| C[C@H](Oc1ccc2ncc(/C=C/C(=O)O)c(C#N)c2c1)c1c(Cl)ccc(F)c1Cl | 110 nM | > 100 µM | 2.3 |  |  |
| C[C@H](Oc1ccc(/C=C/C(=O)O)c(C2CC2)c1)c1c(Cl)ccc(F)c1Cl | 100 nM | > 100 µM | 3.6 | 100 µM (≈ 39.5 µg/mL) |  |
| Cc1cnn(C)c1[C@H](C)Oc1ccc2ncc(/C=C/C(=O)O)c(C3CC3)c2c1 | > 10000 nM | > 100 µM | 0.9 |  |  |
| C[C@H](Oc1ccc2ncc(O)c(C3CC3)c2c1)c1c(Cl)ccc(F)c1Cl | 42 nM | > 100 µM |  |  |  |
| C[C@H](Oc1ccc(NC(=O)CC(N)=O)c(C2CC2)c1)c1c(Cl)ccc(F)c1Cl | 40 nM | > 100 µM | 3.9 | 25 µM (≈ 10.6 µg/mL) |  |
| C[C@H](Oc1cccc(C2CC2)n1)c1c(Cl)ccc(F)c1Cl | > 10000 nM | > 100 µM | 4.9 | > 100 µM |  |
| O=C(O)/C=C/c1cnc2ccc(O[C@@H](CO)c3c(Cl)cccc3Cl)cc2c1C1CC1 | 550 nM | > 100 µM | 2 |  |  |
| C[C@H](Oc1cc(B(O)O)c2ncc(/C=C/C(=O)O)c(C3CC3)c2c1)c1c(Cl)ccc(F)c1Cl | 150 nM | > 100 µM |  |  |  |
| C[C@H](Oc1ccc2c(c1)CN(CCC(=O)O)CC2)c1c(Cl)ccc(F)c1Cl | > 50000 nM | > 100 µM |  |  |  |
